Laboratory results reported in ChEMBL document CHEMBL3804816 (Medchemcomm, 2016).
Calls of active or inactive are those of the source. The rule behind the calls is not given here.

How the values were obtained:
Format in all cases: cell-based
[1] = Antagonist activity against GABA type-A receptor in human IMR32 cells assessed as GABA-induced response preincubated for 10 mins followed by GABA addition measured at 140 mins by Epic DMR assay
IMR-32 [2] = test: Agonist activity at GABA type-A receptor in human IMR32 cells at 1 mM after 2 hrs by Epic DMR assay
IMR-32 [3] = test: Agonist activity at GABA type-A receptor in human IMR32 cells at 100 uM after 2 hrs by Epic DMR assay
[4] = Agonist activity at GABA type-A receptor in human IMR32 cells after 2 hrs by Epic DMR assay; conditions: IMR-32, 2 h

COc1ccc(-c2ccc(=N)n(CCCC(=O)O)n2)cc1 [GABAZINE]
IC50 ([1]; IMR-32, read-out: IC50): 7.38 µM | IC50 ([1]; IMR-32, read-out: pIC50 (converted)): 4.57 µM

Oc1noc2c1CCNC2
Activity (IMR-32 [2]): Active

NCC(CC(=O)O)c1ccc(Cl)cc1 (racemic)
Activity (IMR-32 [3]): inactive

NCc1cc(O)no1 [MUSCIMOL]
EC50 ([4]; read-out: EC50): 2.04 µM | EC50 ([4]; read-out: pEC50 (converted)): 1.7 µM | Activity (IMR-32 [2]): Active
